“Also recorded” adds a separate entry of the source.
Assays:
Format in all cases: cell-based, Human
[1] = tested on: ARPE-19 cells; test: MTT cytotoxicity assay of LE DDS; settings: 1, 10, 100 μM, 24 hours
Method: (§1) Human retinal pigment epithelium, ARPE-19, cells (ATCC # CRL-2302) were grown in 1:1 Dulbecco's Modified Eagle's Medium and Ham's F12 Medium (Mediatech, Inc., Manassas, Va.) with 10% fetal bovine serum and 100 U/mL penicillin/streptomycin (Sigma Aldrich, St. Louis, Mo.). The cultures were maintained in a humid environment at 5% CO2 and 37° C.
Cytotoxicity was assessed in ARPE-19 cells by the 3-(4,5-dimethylthiazol-2-yl)-2,5-diphenyltetrazolium bromide salt (MTT) assay. Briefly, cells were seeded in 24-well plates at a density of 5×10^4 cells/mL for 24 hours to achieve confluence before treatment. Cells were exposed to free LE solution, LE NPs, and LE NPs-TR gel at varying concentrations (0, 1, 10, 100 μM) for 24 hours after which the MTT assay was performed. Cell culture media were aspirated and 300 μL of MTT reagent solution (1 mg/mL) was added to each well. Cells were incubated at 37° C. and 5% CO2 for 4 hours, after which the MTT reagent solution was aspirated and 500 μL of DMSO was added to each well. Plates were allowed to shake gently for 10 minutes before being read by Synergy H4 plate reader (Biotek Industries, Inc., Winooski, Vt.) at absorbance of 570 nm.

[2] = tested on: VEGF secretion in ARPE-19 cells; test: VEGF secretion ELISA, LE formulations
Method: as §1
ARPE-19 cells were seeded onto 24-well plates at 5×10^4 cells/mL and allowed to grow until confluence. On the day of study, cell culture media were replaced with 1% FBS experimental media and allowed to remain in quiescence for 12 hours. The cellular monolayers were incubated with varying treatment concentrations of free LE solution (1, 10 μM), LE NPs (10 μM), and LE NPs-TR gel (10 μM). Culture media were collected at 12 and 72 hours. Secreted VEGF in collected culture media was quantified by the ELISA method (Human VEGFA ELISA kit, Thermo Scientific, Waltham, Mass.). The cell protein content was assayed using the BCA protein assay kit after lysing the cells and VEGF secretion was normalized to total protein. Samples were read by using the Synergy H4 plate reader (Biotek Industries, Inc., Winooski, Vt.) with absorbance at 450 nm minus absorbance at 550 nm.

[3] = tested on: ARPE-19 cells; test: MTT cytotoxicity assay of TA DDS; settings: 10 μM, 24 h
Method: as §1, with “(Mediated,” for “(Mediatech,”, “Um′” for “U/mL”
The cytotoxicity of the DDS was assessed in ARPE-19 cells by the 3-(4,5-dimethylthiazol-2-yl)-2,5-diphenyltetrazolium bromide salt (MTT) assay. Briefly, cells were seeded in 24-well plates at a density of 5×10^4 cells/ml for 24 h to achieve confluency before treatment. Cells were exposed to free TA, TA NPs, and TA NP-TR gel at varying concentrations (0, 1, 10, 100 μM) for 24 h after which the MTT assay was performed. Cell culture media were aspirated, and […] of MTT reagent solution (1 mg/ml) was added to each well. Cells were incubated at 37° C. and 5% CO2 for 4 h, after which the MTT reagent solution was aspirated and 1 mL of DMSO was added to each well. Plates were allowed to shake gently for 10 min before being read by Synergy H4 plate reader (Biotek Industries, Inc., Winooski, Vt.) at absorbance of 570 nm.

[4] = tested on: VEGF secretion in ARPE-19 cells; test: VEGF secretion ELISA, TA formulations; settings: 10 μM, 72 h
Method: Human retinal pigment epithelium, ARPE-19, cells (ATCC # CRL-2302) were grown in 1:1 Dulbecco's Modified Eagle's Medium and Ham's F12 Medium (Mediated, Inc., Manassas, Va.) with 10% fetal bovine serum and 100 Um′ penicillin/streptomycin (Sigma Aldrich, St. Louis, Mo.). The cultures were maintained in a humid environment at 5% CO2 and 37° C. ARPE-19 cells were seeded onto 24-well plates at 5×10^4 cells/ml and allowed to grow until confluence. On the day of study, cell culture media were replaced with 1% FBS experimental media and allowed to remain in quiescence for 12 h. The cellular monolayers were incubated with varying treatment concentrations of free TA solution (1, 10 and 100 μM), TA NPs (10 and 100 μM) and TA NP-TR gel (10 and 100 μM). Culture media were collected at 12 and 72 h. Secreted VEGF in collected culture media was quantified by the ELISA method (Human VEGFA ELISA kit, Thermo Scientific, Waltham, Mass.). The cell protein content was assayed using the BCA protein assay kit after lysing the cells, and VEGF secretion was normalized to total protein. Samples were read using the Synergy H4 plate reader (Biotek Industries, Inc., Winooski, Vt.) with absorbance at 450 nm minus absorbance at 550 nm.

In the case of `CCOC(=O)O[C@]1(C(=O)OCCl)CC[C@H]2[C@@H]3CCC4=CC(=O)C=C[C@]4(C)[C@H]3[C@@H](O)C[C@@]21C` [free LE, Loteprednol etabonate], the “MTT cytotoxicity vs untreated control cells” value [1] is reported as “no impact on cell viability”, the “MTT cytotoxicity vs untreated control cells” value ([1]; listed as free LE solution) is reported as “no cytotoxicity” and the “suppression of VEGF expression vs media control” value ([2]; 1 μM, 12 hours) is reported as “showed reduction in VEGF expression”. For the same compound, the “suppression of VEGF secretion vs control” value ([2]; 10 μM, 12 hours) was “showed reduction in VEGF expression” and the “reduction of VEGF expression compared to control” value ([2]; within 12 hours, p<0.05, concentration not stated) was “significantly reduced VEGF expression”.
In the case of `CC1(C)O[C@@H]2C[C@H]3[C@@H]4CCC5=CC(=O)C=C[C@]5(C)[C@@]4(F)[C@@H](O)C[C@]3(C)[C@]2(C(=O)CO)O1` [free TA, Triamcinolone acetonide], the “MTT cytotoxicity vs untreated control cells” value [3] is reported as “induced significant cell death; also recorded: cytotoxic” and the “suppression of VEGF expression” value [4] is reported as “no significant effect”.

Reference: patent US10973776B1, “Loteprednol etabonate nanoparticles in thermoreversible gels for enhanced therapeutics” (University of South Florida, priority 2015, dated 2021)
